Assay results published in article PMC5321741, “Arylmethylamino steroids as antiparasitic agents” (Nature Communications, 2017).

Columns and labels:
[1] = system: P. falciparum gametocytes (pfs16-GFP-Luc, NF54 background); assay: gametocyte luciferase assay; assay type: cell-based, Plasmodium falciparum
Procedure: Sensitivity of P falciparum gametocytes to lead compound 1o was determined by measuring the activity of luciferase in luciferase-expressing gametocytes after an exposure of 72 h to different concentrations of compound 1o.
The pfs16-GFP-Luc (NF54 background) parasite strain[44] was maintained at 1 to 10% parasitaemia in an RPMI 1640 culture medium supplemented with A+ erythrocytes (2% haematocrit), 10% decomplemented human serum, 9 mM (0.16%) glucose, 0.2 mM hypoxanthine, 2.1 mM L-glutamine, and 20 μg ml^−1 gentamicin. Parasite cultures were incubated at 37 °C in 5% O2, 5% CO2, and 90% N2. […] Following drug exposure, parasites were cultivated for two additional days in normal medium before centrifugation and freezing at −80 °C, and luciferase activity was measured.
Plates frozen at −80 °C were thawed at 37 °C. […] Luciferase activity was measured on a luminescence plate reader (Mithras LB940 luminometer, Berthold Technologies). The mean of the luciferase activity was calculated for each technical triplicate and normalized as follows: (Lucx−LucRBC)/(Lucsolvent−LucRBC) with Lucx and Lucsolvent=mean luciferase activity for parasites incubated with compound x and with solvent (DMSO for 1o and PBS for MB), respectively, and LucRBC=mean luciferase activity of non-infected red blood cells (background). […]

[2] = spectrophotometric titration by Fe(III); assay type: physicochemical; conditions: 0.2 M HEPES pH 7.5 + DMSO (1:1 v/v), 25.0 °C
Procedure: Supplementary Figure 17. (left) Spectrophotometric titration of the substrates 1o and 2o by Cu(II) and Fe(III) and (right) electronic spectra of the free substrates and of corresponding metal complexes. Solvent: 0.2 M aqueous sodium HEPES buffer pH 7.5 + DMSO (1:1 v/v); T = 25.0 […]
were prepared in CH3CN (5 mM). Haematin and the substrates were mixed together in […]
The absorption spectrophotometric […]
each addition of the substrate. […]
spectrophotometric data with the Specfit program. The uncertainties on the log K values are given as 3σ with σ = standard deviation. Origin 7.0 was used to process the analytical

| Compound | relative survival of gametocytes ([1]; concentrations >5 nM, all stages, 72 h exposure) | complete killing of gametocytes ([1]; even at concentrations >1 μM) | log K2o.Fe [2] |
| --- | --- | --- | --- |
| COc1ccc2c(c1)CCC1C2CC[C@@]2(C)C1CC[C@H]2NCc1cc2ccccc2cc1O (stereo partly drawn) [1o] | below 50% | never detected complete killing of gametocytes |  |
| COc1ccc2c(c1)CCC1C2CC[C@@]2(C)C1CC[C@@H]2NCc1cc2ccccc2cc1O (stereo partly drawn) [2o] |  |  | 4.3 |
